Data published in patent US20260083131A1, “AN HERBICIDAL COMBINATION, COMPOSITION AND METHOD OF CONTROLLING WEEDS USING THE SAME” (priority 2022, published 2026).

Columns and labels:
Borreria verticillata = experiment: Greenhouse trial, post-emergence herbicidal activity on Borreria verticillata; type: in vivo
Protocol: (§1) The expected efficacy of a combination of L-glufosinate ammonium and the other herbicides was calculated using the well-established Colby method. Any difference between the observed and “expected” efficacy could be attributed to synergy between the two compounds.
(§2) In the Colby method, the expected (or predicted) response of a combination of herbicides is calculated by taking the product of the observed response for each individual component of the combination when applied alone, divided by 100, and subtracting this value from the sum of the observed response for each component when applied alone. An unexpected enhancement in efficacy of the combination is then determined by comparing the observed response of the combination to the expected (or predicted) response as calculated from the observed response of each individual component alone. If the observed response of the combination is greater than the expected (or predicted) response, or stated conversely, if the difference between the observed and expected response is greater than zero, then the combination is said to be synergistic or unexpectedly effective (Colby, S. R., Weeds, 1967(15), p. 20-22). The Colby method requires only a single dose of each herbicide applied alone and the mixture of both doses. The formula used to calculate the expected efficacy (EE) which was compared with the observed efficacy (OE) to determine the efficacy of the present disclosure is explained hereinbelow:
(§3) Methodology: Greenhouse trials were conducted to evaluate the efficacy of the combination comprising L-glufosinate ammonium and imidazolinone herbicides—imazethapyr, imazamox, imazapic and imazapic+imazapyr—on weeds Borreria verticilata, Eleusine indica, Brachiaria decumbens, Spermacoce latifolia and Glycine max.
(§4) The soil used was sandy clay loam—sand: 68.0%; silt: 8.0%; clay: 24.0%.
(§5) All treatments were in 3 replications per treatment with a spray volume of about 150 L/ha.
The percentage efficacy was calculated after 3, 7, 14, 21, 28 and 35 days of applications (DAA). The target weed was Borreria verticillata, and the concentration of the herbicide and the results are recorded in Table 1.
The percentage efficacy was calculated after 3 days of applications (DAA). The target weed was Borreria verticillata, and the concentration of the herbicide and the results are recorded in Table 2.
The percentage efficacy was calculated after 3, 7, 14, 21, 28 and 35 days of applications (DAA). The target weed was Borreria verticillata, and the concentration of the herbicide and the results are recorded Table 7.

weedy Eleusine indica = experiment: Greenhouse trial, post-emergence herbicidal activity on Eleusine indica; type: in vivo; conditions: Table 4
Protocol: as §1, §2, §3, §4, §5
The percentage efficacy was calculated after 7, 14, 21, 28, 35 days of applications (DAA). The target weed was weedy Eleusine indica, and the concentration of the herbicide and the results are recorded in Table 4.

Spermacoce latifolia = experiment: Greenhouse trial, post-emergence herbicidal activity on Spermacoce latifolia; type: in vivo; conditions: Table 5
Protocol: as §1, §2, §3, §4, §5
The percentage efficacy was calculated after 14, 21, 28, 35 days of applications (DAA). The target weed was Spermacoce latifolia, and the concentration of the herbicide and the results are recorded Table 5.

[1] = test system: weedy Brachiaria decumbens; experiment: Greenhouse trial, post-emergence herbicidal activity on Brachiaria decumbens; type: in vivo; conditions: Table 3
Protocol: as §1, §2, §3, §4, §5
The percentage efficacy was calculated after 7, 14, 21, 28, 35 days of applications (DAA). The target weed was weedy Brachiaria decumbens, and the concentration of the herbicide and the results are recorded in Table 3.

weedy Glycine max = experiment: Greenhouse trial, post-emergence herbicidal activity on Glycine max; type: in vivo; conditions: Table 6
Protocol: as §1, §2, §3, §4, §5
The percentage efficacy was calculated after 14, 21, 28, 35 days of applications (DAA). The target weed was weedy Glycine max, and the concentration of the herbicide and the results are recorded in Table 6.

[2] = test system: Viola arvensis, Bromus spp., Lolium spp., Agropyron repens and Urtica urens; conditions: reported by Hoechst et al., 1991; cited from earlier work

**Q.** Which “Observed efficacy (%) of Imazamox (21 g a.i./ha)” value (Borreria verticillata; 3 DAA, 21 g a.i./ha, Table 2) does the source give for `COCc1cnc(C2=NC(C)(C(C)C)C(=O)N2)c(C(=O)O)c1` (stereo not drawn) [Imazamox, imazamox] here?
**A.** 10%

**Q.** What does the source list for `CP(=O)(O)CC[C@H](N)C(=O)O.N` [L-glufosinate ammonium, ammonium (2S)-2-amino-4-(methylphosphinato)butyric acid]?
**A.** Observed efficacy (%) of L-glufosinate ammonium, (150 g a.i./ha) (weedy Eleusine indica; 7 DAA): 43.3%; Observed efficacy (%) of L-glufosinate ammonium, (150 g a.i./ha) (weedy Eleusine indica; 14 DAA): 41.3%; Observed efficacy (%) of L-glufosinate ammonium, (150 g a.i./ha) (weedy Eleusine indica; 21 DAA): 37.3%; Observed efficacy (%) of L-glufosinate ammonium, (150 g a.i./ha) (weedy Eleusine indica; 28 DAA): 28.3%; Observed efficacy (%) of L-glufosinate ammonium, (150 g a.i./ha) (weedy Eleusine indica; 35 DAA): 25.3%; Observed efficacy (%) of L-glufosinate ammonium (Glufosinate-P-ammonium) (150 g a.i./ha) (Borreria verticillata; 3 DAA, Table 1): 50%; Observed efficacy (%) of L-glufosinate ammonium (Glufosinate-P-ammonium) (150 g a.i./ha) (Borreria verticillata; 3 DAA, Table 2): 55%; Observed efficacy (%) of L-glufosinate ammonium (Glufosinate-P-ammonium) (150 g a.i./ha) (Borreria verticillata; 3 DAA, Table 7): 50%; Observed efficacy (%) of L-glufosinate ammonium (Glufosinate-P-ammonium) (150 g a.i./ha) (Borreria verticillata; 7 DAA, Table 1): 80%; Observed efficacy (%) of L-glufosinate ammonium (Glufosinate-P-ammonium) (150 g a.i./ha) (Borreria verticillata; 7 DAA, Table 7): 80%; Observed efficacy (%) of L-glufosinate ammonium (Glufosinate-P-ammonium) (150 g a.i./ha) (Borreria verticillata; 14 DAA, Table 1): 95%; Observed efficacy (%) of L-glufosinate ammonium (Glufosinate-P-ammonium) (150 g a.i./ha) (Borreria verticillata; 14 DAA, Table 7): 95%; Observed efficacy (%) of L-glufosinate ammonium (Glufosinate-P-ammonium) (150 g a.i./ha) (Borreria verticillata; 21 DAA, Table 1): 90%; Observed efficacy (%) of L-glufosinate ammonium (Glufosinate-P-ammonium) (150 g a.i./ha) (Borreria verticillata; 21 DAA, Table 7): 90%; Observed efficacy (%) of L-glufosinate ammonium (Glufosinate-P-ammonium) (150 g a.i./ha) (Borreria verticillata; 28 DAA, Table 1): 90%; Observed efficacy (%) of L-glufosinate ammonium (Glufosinate-P-ammonium) (150 g a.i./ha) (Borreria verticillata; 28 DAA, Table 7): 90%; Observed efficacy (%) of L-glufosinate ammonium (Glufosinate-P-ammonium) (150 g a.i./ha) (Borreria verticillata; 35 DAA, Table 1): 85%; Observed efficacy (%) of L-glufosinate ammonium (Glufosinate-P-ammonium) (150 g a.i./ha) (Borreria verticillata; 35 DAA, Table 7): 85%; Observed efficacy (%) of L-glufosinate ammonium, (150 g a.i./ha) (Spermacoce latifolia; 14 DAA): 56.7%; Observed efficacy (%) of L-glufosinate ammonium, (150 g a.i./ha) (Spermacoce latifolia; 21 DAA): 56.7%; Observed efficacy (%) of L-glufosinate ammonium, (150 g a.i./ha) (Spermacoce latifolia; 28 DAA): 58.3%; Observed efficacy (%) of L-glufosinate ammonium, (150 g a.i./ha) (Spermacoce latifolia; 35 DAA): 58.3%; Observed efficacy (%) of L-glufosinate ammonium, (150 g a.i./ha) ([1]; 7 DAA): 46%; Observed efficacy (%) of L-glufosinate ammonium, (150 g a.i./ha) ([1]; 14 DAA): 54.3%; Observed efficacy (%) of L-glufosinate ammonium, (150 g a.i./ha) ([1]; 21 DAA): 53.3%; Observed efficacy (%) of L-glufosinate ammonium, (150 g a.i./ha) ([1]; 28 DAA): 48.3%; Observed efficacy (%) of L-glufosinate ammonium, (150 g a.i./ha) ([1]; 35 DAA): 42%; Observed efficacy (%) of L-glufosinate ammonium, (150 g a.i./ha) (weedy Glycine max; 14 DAA): 60%; Observed efficacy (%) of L-glufosinate ammonium, (150 g a.i./ha) (weedy Glycine max; 21 DAA): 63.3%; Observed efficacy (%) of L-glufosinate ammonium, (150 g a.i./ha) (weedy Glycine max; 28 DAA): 63.3%; Observed efficacy (%) of L-glufosinate ammonium, (150 g a.i./ha) (weedy Glycine max; 35 DAA): 52.7%

**Q.** Which “control of weed species Viola arvensis, Bromus spp., Lolium spp., Agropyron repens and Urtica urens” value [2] does the source give for `CP(=O)(O)CCC(N)C(=O)O` (racemic) [glufosinate, DL-homoalanin-4-yl(methyl)phosphinic acid] here?
**A.** either not combated, or only weakly combated

**Q.** Which “Observed efficacy (%) of Imazapic (59 g a.i./ha)” value (shortened to “Observed efficacy (%) of Imazapic”) (Borreria verticillata; 3 DAA, Table 1) does the source give for `Cc1cnc(C2=NC(=O)C(C)(C(C)C)N2)c(C(=O)O)c1` (stereo not drawn) [Imazapic, imazapic] here?
**A.** 10%

**Q.** And the “Observed efficacy (%) of Imazapic” value (Borreria verticillata; 7 DAA, Table 1)?
**A.** 20%

**Q.** What about the “Observed efficacy (%) of Imazapic” value (Borreria verticillata; 14 DAA, Table 1) of the same molecule?
**A.** 35%

**Q.** What about the “Observed efficacy (%) of Imazapic” value (Borreria verticillata; 21 DAA, Table 1) of the same molecule?
**A.** 30%

**Q.** And the “Observed efficacy (%) of Imazapic” value (Borreria verticillata; 28 DAA, Table 1)?
**A.** 40%

**Q.** What about the “Observed efficacy (%) of Imazapic” value (Borreria verticillata; 35 DAA, Table 1) of the same molecule?
**A.** 60%

**Q.** With `CCc1cnc(C2=NC(C)(C(C)C)C(=O)N2)c(C(=O)O)c1` (stereo not drawn) [Imazethapyr, imazethapyr] as the molecule, how does the “Observed efficacy (%) of Imazethapyr, (75 g a.i./ha)” value (“Observed efficacy (%) of Imazethapyr” for short) (weedy Eleusine indica; 7 DAA) read?
**A.** 8.3%

**Q.** And the “Observed efficacy (%) of Imazethapyr” value (weedy Eleusine indica; 14 DAA)?
**A.** 12%

**Q.** What about the “Observed efficacy (%) of Imazethapyr” value (weedy Eleusine indica; 21 DAA) of the same molecule?
**A.** 12.7%

**Q.** What about the “Observed efficacy (%) of Imazethapyr” value (weedy Eleusine indica; 28 DAA) of the same molecule?
**A.** 12.7%

**Q.** What about the “Observed efficacy (%) of Imazethapyr” value (weedy Eleusine indica; 35 DAA) of the same molecule?
**A.** 10%

**Q.** What about the “Observed efficacy (%) of Imazethapyr” value (Spermacoce latifolia; 14 DAA) of the same molecule?
**A.** 30%

**Q.** And the “Observed efficacy (%) of Imazethapyr” value (Spermacoce latifolia; 21 DAA)?
**A.** 36.7%

**Q.** What about the “Observed efficacy (%) of Imazethapyr” value (Spermacoce latifolia; 28 DAA) of the same molecule?
**A.** 30%

**Q.** What about the “Observed efficacy (%) of Imazethapyr” value (Spermacoce latifolia; 35 DAA) of the same molecule?
**A.** 26.7%

**Q.** What about the “Observed efficacy (%) of Imazethapyr” value ([1]; 7 DAA) of the same molecule?
**A.** 10%

**Q.** And the “Observed efficacy (%) of Imazethapyr” value ([1]; 14 DAA)?
**A.** 10%

**Q.** What about the “Observed efficacy (%) of Imazethapyr” value ([1]; 21 DAA) of the same molecule?
**A.** 15%

**Q.** And the “Observed efficacy (%) of Imazethapyr” value ([1]; 28 DAA)?
**A.** 10%

**Q.** And the “Observed efficacy (%) of Imazethapyr” value ([1]; 35 DAA)?
**A.** 5%

**Q.** And the “Observed efficacy (%) of Imazethapyr” value (weedy Glycine max; 14 DAA)?
**A.** 10%

**Q.** And the “Observed efficacy (%) of Imazethapyr” value (weedy Glycine max; 21 DAA)?
**A.** 20%

**Q.** What about the “Observed efficacy (%) of Imazethapyr” value (weedy Glycine max; 28 DAA) of the same molecule?
**A.** 20%

**Q.** And the “Observed efficacy (%) of Imazethapyr” value (weedy Glycine max; 35 DAA)?
**A.** 15%
